Reference: paper PMC4912613, “A broad analysis of resistance development in the malaria parasite” (Nature Communications, 2016)

Legend:
[1] = test system: 15 resistant strains and their parents; test: Cross-resistance panel, asexual blood stage proliferation EC50 fold shifts (all strains); assay type: cell-based, Plasmodium falciparum; settings: for EC50 fold-shifts in resistant lines relative to parent clones: loss of efficacy in some resistant lines
Description: (§1) To evaluate potential overlapping activity against known antimalarial drug targets, we performed dose-response studies with each compound against our assembled set of drug-resistant lines and their corresponding parents, in an asexual blood stage proliferation assay (Table 1). Comparisons were made to the drug-sensitive strain 3D7 when a parent was unavailable (TM90C2A, W2 and Dd2). As laboratories conducted EC50 assays with different strains and protocols, all comparisons were made between assays from the same laboratory and under the same assay conditions. Compounds displaying >5-fold EC50 shifts relative to the parent or sensitive strain were flagged as having potentially non-novel targets. Average fold shifts per strain ranged from 0.82 to 2.34, with a median of 1.23 indicating there was not common resistance to any one resistant clone. No resistance patterns were observed when classifying the compounds based on chemical structure, but this was not surprising given the diversity of compounds chosen. […]
(§2) The 48-h assay was carried out in a 96-well format following standard methods using the ^3H-hypoxanthine incorporation assay. […] Radioactivity was measured using a microbeta counter. […] All assays were conducted in triplicate using three independently grown cultures, and EC50 values were determined using the XLfit add-in module for Excel (version 2.3.1) from Grafit (version 5.3.1.3), where parameter h is the assay hill slope, x is the compound concentration and y is the inhibition of growth effect. […]
(§3) Alternatively, a SYBR Green-based proliferation approach was used for the 72-h assay, as previously described. […] Following incubation, 10 × SYBR Green I (Invitrogen; supplied in 10,000 × concentration) in lysis buffer ([…], 5 mM EDTA, 0.16% Saponin wt per vol and 1.6% Triton X vol per vol) was added to the wells and the plates were incubated overnight at room temperature before plate reading. […]

[2] = test system: MMV008149-resistant clones (Dd2 parent; cytochrome bc1 G131S, Y126C, V284L); test: EC50 assay on MMV008149-resistant lines; assay type: cell-based; settings: Plasmodium falciparum, six MMV008149-resistant clones
Method: Genomic DNA (gDNA) was isolated from the Dd2 parent and six clones (two clones per resistant selection flask), and samples were prepared for whole-genome sequencing. Samples were sequenced to >60 × coverage using paired end reads and aligned to the 3D7 reference genome and variants were called with HaplotypeCaller (GATK). Comparing the nucleotide variation found in the resistant samples to the Dd2 parent clone, which had been isolated immediately before selections, we identified genomic changes that had presumably occurred during selection. Following this comparison, 19 mutations were identified: 11 SNVs and eight insertion/deletions (INDELs) (Table 2, Supplementary Data 2). INDEL mutations were comprised of intergenic (three), codon INDEL (three), intronic (one) and frame-shift (one) mutations. […] Comparing all six clones, one gene was mutated across all samples: cytochrome bc1. […]
as §3

[3] = test system: PfATP4-Mut2 (PfATP4 P412L, parent W2); test: Cross-resistance EC50 assay, PfATP4-Mut2; assay type: cell-based, Plasmodium falciparum
Description: as §1, §2, §3

Structure (SMILES)	EC50 fold-shifts in resistant lines relative to parent clones [1] [fold]	EC50 fold-shift, ATP4-Mut2 vs parent [3] [×]	other results
Cc1c(C)n(Cc2ccc(F)cc2)c2ccc(C(=O)NCc3ccco3)cc12 [MMV008149]	> 5		EC50 [2]: 1.67 to 10.1 µM
CCN(CC)S(=O)(=O)c1ccc(-c2csc(Nc3ccc(C)c(C)c3)n2)cc1 [MMV009108]		23	
COc1ccccc1CNC(=O)CCn1c(=O)[nH]c2ccsc2c1=O [MMV019066]	> 5		
CC(C)c1cccc(C(NC(=O)C2Cc3ccccc3CN2C(=O)c2cccc(N3CCOCC3)c2)C2CCCC2)c1 (stereo not shown) [MMV028038]		5	
CN(C)CCCN(C)C(=O)C1Cc2cc(-c3ccccc3)ccc2N1S(=O)(=O)c1ccccc1 (stereo not shown) [MMV028895]			EC50 fold-shift, other Dd2 clones compared with 3D7, average ([1]; Dd2-derived clones, average): 5.5 ×
O=C(Nc1ccsc1C(=O)NC1CCCCC1)c1ccc(F)cc1 [MMV665939]			EC50 fold-shift, PfATP4-Mut2 compared with 3D7 ([3]; loss of efficacy): 18.9 ×
